Assay results taken from patent US20250144067A1, “PERSONALIZED STARVATION THERAPY FOR CANCER” (Faeth Therapeutics, Inc., priority 2021, published 2025).
Where a name gives a salt, the structure may show the parent alone.

Experiments:
[1] = test system: NCI-H292 lung cancer cells; test: FDA drug screening, complete media vs cholesterol-free media without statin (TABLE 1); assay type: cell-based, human
[2] = test system: NCI-H292 lung cancer cells; test: FDA drug screening, complete media vs cholesterol-free media with simvastatin (TABLE 2); assay type: cell-based, human; conditions: for Cholesterol-free media + simvastatin (0.04 μM) / Complete Media: NCI-H292 cells
[3] = Complete minus Cholesterol-free, greater than 0 enhanced anti-cancer activity, about 0 neutral, below 0 antagonists
[4] = NCI-H292 cells in cholesterol-free media without statin
[5] = NCI-H292 cells in complete media
[6] = FDA library drug in cholesterol-free media with simvastatin 0.04 μM
[7] = FDA library drug in complete media
[8] = complete media vs cholesterol-free media + simvastatin (0.04 μM), >0 enhanced anti-cancer activity, about 0 neutral, <0 antagonist
[9] = FDA drug library screen, cholesterol-free media with simvastatin 0.04 μM
[10] = NCI-H292 cells, cholesterol-free media without statin
[11] = FDA drug library screen, complete media
[12] = Complete minus Cholesterol-free, >0 enhanced anti-cancer activity, about 0 neutral, <0 antagonist
[13] = NCI-H292 cells, cholesterol-free media without statin, FDA drug library screen
[14] = NCI-H292 cells, complete media, FDA drug library screen
[15] = cholesterol-free media with simvastatin 0.04 μM, cell growth value in FDA drug screen
[16] = complete media, cell growth value in FDA drug screen
[17] = complete media minus cholesterol-free media + simvastatin, >0 enhanced anti-cancer activity, about 0 neutral, <0 antagonist
[18] = complete vs cholesterol-free media, >0 enhanced anti-cancer activity, about 0 neutral, <0 antagonist

Compound	Cholesterol-free media + simvastatin (0.04 μM) [2, 6]	Complete Media [2, 7]	Difference [2, 8]	Cholesterol-free [1, 10]	Complete ([1]; NCI-H292 cells, complete media)	Difference [1, 12]	Cholesterol-free [1, 13]	Complete [1, 14]	other results
O=C(O)CCCCCCCC(=O)O [Azelaic acid]	1.245	0.8813	−0.36	–	–	–	–	–	Difference [1, 3]: −0.60; Cholesterol-free [1, 4]: 1.702; Complete [1, 5]: 1.104
C=CCc1ccccc1OCC(O)CNC(C)C (stereo not drawn) [Alprenolol (hydrochloride)]	–	–	−0.08	–	–	–	–	–	Difference ([1]; Complete minus Cholesterol-free, greater than 0 enhanced anti-cancer activity, about 0 neutral, below 0 antagonist): −0.15; Cholesterol-free ([1]; NCI-H292 cells, FDA drug library screen, cholesterol-free media without statin): 1.198; Complete ([1]; NCI-H292 cells, FDA drug library screen, complete media): 1.044; Cholesterol-free media + simvastatin (0.04 μM) [2, 9]: 1.228
CNc1ncc(-c2ccc3c(=O)c(C(=O)O)cn(C4CC4)c3c2C)cc1C [Ozenoxacin]	–	–	–	1.08	0.7589	–	–	–	Difference ([1]; complete vs cholesterol-free media, […]): −0.32; Cholesterol-free media + simvastatin (0.04 μM) [2, 9]: 0.8626; Complete Media [2, 11]: 0.762; Difference ([2]; complete media vs cholesterol-free media + simvastatin (0.04 μM), […]): −0.10
O=C(O)CSCC(=O)NC1CCSC1=O (stereo not drawn) [Erdosteine]	–	–	–	–	–	0.06	1.459	1.516	Cholesterol-free media + simvastatin (0.04 μM) [2, 15]: 1.196; Complete Media [2, 16]: 1.238; Difference [2, 17]: 0.04
Carbasalate calcium	–	–	–	1.087	0.8754	–	–	–	Difference ([1]; Complete minus Cholesterol-free, […]): −0.21; Complete Media ([2]; complete media, […]): 1.129; Difference ([2]; complete media minus cholesterol-free media + simvastatin, […]): 0.02
COc1ccc(C2C(=O)c3ccccc3C2=O)cc1 [Anisindione]	–	–	–	–	–	–	0.8915	1.35	Difference [1, 18]: 0.46; Cholesterol-free media + simvastatin (0.04 μM) [2, 9]: 1.296; Complete Media [2, 11]: 1.617; Difference [2, 17]: 0.32
O=C(NCCN1CCOCC1)c1ccc(Cl)cc1 [Moclobemide]	–	–	–	1.09	0.8213	−0.27	–	–	Cholesterol-free media + simvastatin (0.04 μM) ([2]; cholesterol-free media with simvastatin 0.04 μM, FDA drug library screen (TABLE 2)): 0.9196; Complete Media ([2]; complete media, FDA drug library screen (TABLE 2)): 0.8957; Difference ([2]; complete media minus cholesterol-free media + simvastatin (0.04 μM), >0 enhanced anti-cancer activity, about 0 neutral, <0 antagonist): −0.02
CN1CC2c3ccccc3Oc3ccc(Cl)cc3C2C1 (stereo not drawn) [Asenapine (hydrochloride)]	–	–	–	–	–	–	1.288	1.388	Difference [1, 18]: 0.10; Cholesterol-free media + simvastatin (0.04 μM) [2, 15]: 1.244; Complete Media [2, 16]: 1.302; Difference [2, 17]: 0.06
c1ccc(CN(CC2=NCCN2)c2ccccc2)cc1 [Antazoline (hydrochloride)]	–	–	−0.19	1.006	0.7704	−0.24	–	–	Cholesterol-free media + simvastatin (0.04 μM) ([2]; drug in cholesterol-free media with simvastatin 0.04 μM): 1.401; Complete Media ([2]; drug in complete media): 1.21
CN(C)CCCC1(c2ccc(F)cc2)OCc2cc(C#N)ccc21 (stereo not drawn) [Citalopram (hydrobromide)]	1.457	0.8476	−0.61	–	–	–	0.8091	1.106	Difference [1, 18]: 0.30
CCN(CC)CCNC(=O)c1ccc(N)cc1 [Procainamide (hydrochloride)]	1.529	1.165	−0.36	–	–	–	–	–	Difference [1, 3]: −0.51; Cholesterol-free [1, 4]: 1.397; Complete [1, 5]: 0.8831
NCC(=O)O [Glycine]	1.249	0.983	−0.27	–	–	–	–	–	Difference [1, 3]: −0.56; Cholesterol-free [1, 4]: 1.569; Complete [1, 5]: 1.011
CCN(CC)CCOC(=O)c1ccc(N)cc1Cl [Chloroprocaine (hydrochloride)]	1.184	0.9029	−0.28	1.161	0.8831	−0.28	–	–	–
COc1ccc(OC)c(C(O)CNC(=O)CN)c1 (stereo not drawn) [Midodrine (hydrochloride)]	2.06	1.752	−0.31	–	–	–	0.6607	0.8643	Difference [1, 18]: 0.20
Nc1ccn([C@@H]2CS[C@H](CO)O2)c(=O)n1 [Lamivudine]	1.644	–	−0.47	1.216	0.9947	−0.22	–	–	–
